Counter-ions that a name gives are not always drawn.
Legend:
ZR-751 (breast) = assay: Cell growth inhibition assay (SRB), Example 2, ZR-751; assay type: cell-based, human; conditions: Table 6, 72-h continuous treatment
Excerpt: (§1) Drug-Resistance Study. Twelve active compounds [including four hydrochloride salts (18b, 22b, 24b, 32b) of corresponding active free bases (18a, 22a, 24a, 32a)] were further screened against an extended panel of human tumor cell lines including DU-145 (prostate), ZR-751 (breast), KB (nasopharyngeal), and KB-VIN (multidug-resistant KB subline) in order to explore their antitumor spectra and drug-resistance profiles. Four compounds were used as reference compounds. Antofine is a positional isomer of tylophorine isolated from Asclepiadaceae by Dr. T. S. Wu in Taiwan (Wu, P. L. et al., Heterocycles 2002; 57:2401). […] Doxorubicin (Adriamycin), vincristine, and etoposide (VP-16, Vepesid®) are widely used anticancer agents for treating a range of solid tumors.
(§2) Cell Growth Inhibition Assay. The sulforhodamine B assay was used according to the procedures developed and validated at NCI. The in vitro anticancer activities are expressed as ED50 values, which is the test compound concentration (μM) that reduced the cell number by 50% after 72-h of continuous treatment. The values were interpolated from dose-response data. Each test was performed in triplicate with variation less than 5%. The ED50 values determined in each of independent tests varied less than 10%. Compound stock solutions were prepared in DMSO with the final solvent concentration ≦1% DMSO (v/v), a concentration without effect on cell replication. The cells were cultured at 37° C. in RPMI-1640 supplemented with 25 mM N-2-hydroxyethylpiperazine-N′-2-ethanesulfonic acid (HEPES), […], 10% (v/v) fetal bovine serum, and 100 μg/mL kanamycin in a humidified atmosphere containing 5% CO2.

[1] = tested on: KB-VIN (multidug-resistant KB subline); assay: Cell growth inhibition assay (SRB), Example 2, KB-VIN; assay type: cell-based, human; conditions: Table 6, 72-h continuous treatment
Excerpt: as §1, §2

[2] = tested on: human A549 lung cancer cell line; assay: Cell growth inhibition assay (SRB), Example 2, A549; assay type: cell-based
Excerpt: Cell Growth Inhibition Assay. The sulforhodamine B assay was used according to the procedures developed and validated at NCI. […] The values were interpolated from dose-response data.

DU-145 (prostate) = assay: Cell growth inhibition assay (SRB), Example 2, DU-145; assay type: cell-based, human; conditions: Table 6, 72-h continuous treatment
Excerpt: as §1, §2

KB (nasopharyngeal) = assay: Cell growth inhibition assay (SRB), Example 2, KB; assay type: cell-based, human; conditions: Table 6, 72-h continuous treatment
Excerpt: as §1, §2

[3] = tested on: human A549 lung cancer cell line; assay: Cell growth inhibition assay (SRB), Example 1; assay type: cell-based; conditions: for IC50: 72 h, A549, SRB, 3 days exposure; for EC50: table footnotes of Example 1, A549
Excerpt: Results and discussion. […] Etoposide (VP-16) was used as the reference compound.
Cell Growth Inhibition Assay. The human A549 lung cancer cell line was used for the cytotoxicity screening of PBT derivatives using the cell-based sulforhodamine B (SRB) microtitre plate assay. […] Duration of compound exposure was 3 days.

[4] = Table 4, ED50, 72-h continuous treatment, NA = not active, read-out: A549 (μM), in vitro anticancer activity against A549 lung cancer cells
[5] = Table 6, 72-h continuous treatment, read-out: EC50 (μM) A549
[6] = Homo sapiens, Table 1, NA = Not Active
[7] = Homo sapiens, A549, 72 h, Table 4, ED50, 72-h continuous treatment, NA = not active, read-out: A549 (μM), in vitro anticancer activity against A549 lung cancer cells
[8] = Homo sapiens, A549, 72 h, Table 6, 72-h continuous treatment, read-out: EC50 (μM) A549

CC(CCCCO)NCc1cc2cc3c(cc2c2cc(OCc4ccccc4)ccc12)OCO3 (centres unmarked)
melting point: 175 to 177 °C

O=C(O)CCCCNCc1cc2cc3c(cc2c2cc(OCc4ccccc4)ccc12)OCO3
melting point: 197 to 199 °C

COc1ccc2c(CNCCCCCC(=O)O)cc3cc4c(cc3c2c1)OCO4
melting point: 167 to 169 °C

COc1ccc2c(CNCCCCCCCCCCC(=O)O)cc3cc4c(cc3c2c1)OCO4
melting point: 146 to 148 °C

CCCCCC(CCCCCO)NCc1cc2cc3c(cc2c2cc(OC)ccc12)OCO3 (centres unmarked)
melting point: 122 to 124 °C

COc1ccc2c(CNCCCCC(=O)O)cc3cc4c(cc3c2c1)OCO4
melting point: 145 to 146 °C

COc1ccc2c(CNCCCCCO)cc3cc4c(cc3c2c1)OCO4
melting point: 125 to 126 °C

COc1ccc2c(CNCCCCCC(=O)O)cc3cc(OC)c(OC)cc3c2c1
melting point: 133 to 134 °C

COc1ccc2c3c(c4cc(OC)c(OC)cc4c2c1)C[C@H]1CCCN1C3 [Antofine, reference compound]
EC50 (ZR-751 (breast)): 0.008 µM | EC50 [1]: 0.009 µM | EC50 [2, 4]: 0.008 µM | EC50 [2, 5]: 0.008 µM | EC50 (DU-145 (prostate)): 0.009 µM | EC50 (KB (nasopharyngeal)): 0.013 µM

O=C(O)c1cc2cc3c(cc2c2cc(OCc4ccccc4)ccc12)OCO3 [Compound 7a, 2,3-Methylenedioxy-6-benzyloxy-phenanthrene-9-carboxylic acid]
melting point: 263 to 265 °C

COc1ccc2c(C(=O)O)cc3cc4c(cc3c2c1)OCO4 [Compound 7b, 2,3-Methylenedioxy-6-methoxy-phenanthrene-9-carboxylic acid]
melting point: 293 to 295 °C

COc1ccc2c(C(=O)O)cc3cc(OC)c(OC)cc3c2c1 [Compound 7c, 2,3,6-Trimethoxyphenanthrene-9-carboxylic acid]
melting point: 241 to 243 °C

COC(=O)CCCCCNC(=O)c1cc2cc3c(cc2c2cc(OCc4ccccc4)ccc12)OCO3 [Compound 10, Methyl N-(2,3-methylenedioxy-6-benzyloxy-phenanthr-9-ylcarbonyl)-6-aminohexanoate]
IC50 [3, 6]: 41200 nM

O=C(O)CCCCCNC(=O)c1cc2cc3c(cc2c2cc(OCc4ccccc4)ccc12)OCO3 [Compound 11, N-(2,3-methylenedioxy-6-benzyloxy-phenanthr-9-ylcarbonyl)-6-aminohexanoic acid]
IC50 [3, 6]: 41200 nM | melting point: 198 to 200 °C

O=C(O)CCCCCNCc1cc2cc3c(cc2c2cc(OCc4ccccc4)ccc12)OCO3 [Compound 12, N-(2,3-Methylenedioxy-6-benzyloxy-phenanthr-9-ylmethyl)-6-aminohexanoic acid]
IC50 [3, 6]: 1600 nM | melting point: 184 to 186 °C

O=C(O)[C@@H]1CCCN1Cc1cc2cc3c(cc2c2cc(OCc4ccccc4)ccc12)OCO3 [Compound 18, N-(2,3-Methylenedioxy-6-benzyloxy-phenanthr-9-ylmethyl)-L-proline]
IC50 [3, 6]: 4400 nM | EC50 ([3]; Homo sapiens): 4400 nM | melting point: 147 to 149 °C

COc1ccc2c(CN3CCCC[C@H]3CO)cc3cc4c(cc3c2c1)OCO4 [Compound 18a, N-(2,3-Methylenedioxy-6-methoxy-phenanthr-9-ylmethyl)-L-2-piperidinemethanol]
EC50 (ZR-751 (breast)): 0.1 µM | EC50 [2, 5]: 0.2 µM | EC50 (DU-145 (prostate)): 0.21 µM

COc1ccc2c(CN3CCCC[C@H]3CO)cc3cc4c(cc3c2c1)OCO4 [Compound 18b, N-(2,3-Methylenedioxy-6-methoxy-phenanthr-9-ylmethyl)-L-2-piperidinemethanol hydrochloride]
EC50 (ZR-751 (breast)): 0.08 µM | EC50 [1]: 0.09 µM | EC50 [2, 5]: 0.16 µM | EC50 (DU-145 (prostate)): 0.09 µM | EC50 (KB (nasopharyngeal)): 0.12 µM

O=C(O)[C@@H]1CCCN1C(=O)c1cc2cc3c(cc2c2cc(O)ccc12)OCO3 [Compound 22, N-(2,3-Methylenedioxy-6-hydroxy-phenanthr-9-ylcarbonyl)-L-proline]
IC50 [3, 6]: 39700 nM | melting point: 230 to 231 °C

COc1ccc2c(CNCCCCCCO)cc3cc4c(cc3c2c1)OCO4 [Compound 22a, N-(2,3-Methylenedioxy-6-methoxy-phenanthr-9-ylmethyl)-6-aminohexanol]
EC50 (ZR-751 (breast); Homo sapiens, ZR-75-1, 72 h): 0.13 µM | melting point: 145 to 147 °C | EC50 [1]: 0.35 µM | EC50 [2, 7]: 0.2 µM | EC50 [2, 8]: 0.16 µM | EC50 (DU-145 (prostate); Homo sapiens, DU-145, 72 h): 0.04 µM | EC50 (KB (nasopharyngeal); Homo sapiens, 72 h): 0.25 µM

COc1ccc2c(CN3CCC(CO)CC3)cc3cc4c(cc3c2c1)OCO4 [Compound 24a, N-(2,3-Methylenedioxy-6-methoxy-phenanthr-9-ylmethyl)-L-4-piperidinemethanol]
EC50 (ZR-751 (breast)): 0.03 µM | EC50 [1]: 0.09 µM | EC50 [2, 4]: 0.08 µM | EC50 [2, 5]: 0.08 µM | EC50 (DU-145 (prostate)): 0.03 µM | EC50 (KB (nasopharyngeal)): 0.24 µM

COc1ccc2c(CN3CCC[C@H]3CO)cc3cc4c(cc3c2c1)OCO4 [Compound 32, N-(2,3-Methylenedioxy-6-methoxy-phenanthr-9-ylmethyl)-L-prolinol]
IC50 [3, 6]: 700 nM | melting point: 138 to 139 °C

COc1ccc2c(CN3CCCC[C@H]3C(=O)O)cc3cc(OC)c(OC)cc3c2c1 [Compound 37, N-(2,3,6-Trimethoxyphenanthr-9-ylmethyl)-L-2-piperidinecarboxylic acid]
EC50 [3]: 9700 nM

COc1ccc2c(CN3CCCC[C@H]3CO)cc3cc(OC)c(OC)cc3c2c1 [Compound 38, N-(2,3,6-Trimethoxyphenanthr-9-ylmethyl)-L-2-piperidinemethanol]
EC50 [3]: 6300 nM

COc1ccc(/C(=C\c2cc(OC)c(OC)cc2[N+](=O)[O-])C(=O)N2CCC[C@H]2C(=O)O)cc1 [Compound 39, 1-[3-(4,5-Dimethoxy-2-nitrophenyl)-2-(4-methoxyphenyl)-acryloyl]-pyrrolidine-2-carboxylic acid]
IC50 ([3]; Homo sapiens, Table 3): 80000 nM

COc1ccc(/C(=C\c2cc(OC)c(OC)cc2[N+](=O)[O-])CN2CCC[C@H]2C(=O)O)cc1 [Compound 40, 1-[3-(4,5-Dimethoxy-2-nitrophenyl)-2-(4-methoxyphenyl)-allyl]-pyrrolidine-2-carboxylic acid]
IC50 ([3]; Homo sapiens, Table 3): 45200 nM

COc1ccc(/C(=C\c2cc(OC)c(OC)cc2[N+](=O)[O-])CN2CCC[C@H]2CO)cc1 [Compound 41, {1-[3-(4,5-Dimethoxy-2-nitrophenyl)-2-(4-methoxyphenyl)-allyl]-pyrrolidin-2-yl}-methanol]
IC50 ([3]; Homo sapiens, Table 3): 11700 nM

COc1ccc(/C(=C\c2ccc(OC)c(OC)c2)CN2CCC[C@H]2CO)cc1 [Compound 42, {1-[3-(3,4-Dimethoxyphenyl)-2-(4-methoxyphenyl)allyl]-pyrrolidin-2-yl}-methanol]
IC50 ([3]; Homo sapiens, Table 3): 52200 nM

COc1cccc2c1C(=O)c1c(O)c3c(c(O)c1C2=O)C[C@@](O)(C(=O)CO)C[C@@H]3O[C@H]1C[C@H](N)[C@H](O)[C@H](C)O1 [Doxorubicin, reference compound]
EC50 (ZR-751 (breast); Homo sapiens, ZR-75-1, 72 h): 0.04 µM | EC50 ([1]; Homo sapiens, KBVIN, 72 h): > 4 µM | EC50 [2, 7]: 0.18 µM | EC50 [2, 8]: 0.18 µM | EC50 (DU-145 (prostate); Homo sapiens, DU-145, 72 h): 0.13 µM | EC50 (KB (nasopharyngeal); Homo sapiens, 72 h): 0.18 µM

CC[C@H]1CN2CCc3cc(OC)c(OC)cc3[C@@H]2C[C@@H]1C[C@H]1NCCc2cc(OC)c(OC)cc21 [Emetine, reference compound]
EC50 (ZR-751 (breast); Homo sapiens, ZR-75-1, 72 h): 0.1 µM | EC50 ([1]; Homo sapiens, KBVIN, 72 h): > 2 µM | EC50 [2, 7]: 0.04 µM | EC50 [2, 8]: 0.04 µM | EC50 (DU-145 (prostate); Homo sapiens, DU-145, 72 h): 0.06 µM | EC50 (KB (nasopharyngeal); Homo sapiens, 72 h): 0.04 µM

CC[C@]1(O)C[C@H]2CN(CCc3c([nH]c4ccccc34)[C@@](C(=O)OC)(c3cc4c(cc3OC)N(C=O)[C@H]3[C@@](O)(C(=O)OC)[C@H](OC(C)=O)[C@]5(CC)C=CCN6CC[C@]43[C@@H]65)C2)C1 [Vincristine, reference compound]
EC50 (ZR-751 (breast); Homo sapiens, ZR-75-1, 72 h): 0.04 µM | EC50 ([1]; Homo sapiens, KBVIN, 72 h): 5.3 µM | EC50 [2, 7]: 0.04 µM | EC50 [2, 8]: 0.04 µM | EC50 (DU-145 (prostate); Homo sapiens, DU-145, 72 h): 0.085 µM | EC50 (KB (nasopharyngeal); Homo sapiens, 72 h): 0.006 µM
